{
  "source": "patent US11083723B2",
  "about": "“Use of roluperidone to treat negative symptoms and disorders, increase neuroplasticity, and promote neuroprotection” (Minerva Neurosciences, Inc., priority 2018, dated 2021)",
  "key": {"[1]": {"conditions": "modified release (MR) formulation of Compound (I) that reduces QT prolongation; cited from earlier work"}, "[2]": {"test_system": "BDNF expression by astrocytes", "assay": "BDNF expression by astrocytes, qPCR", "format": "cell-based, rat", "conditions": "for BDNF expression astrocytes, % increase of control conditions: 25 ug/mL, 5 days incubation", "procedure": "For analysis of BDNF expression by real-time quantitative polymerase chain reaction (qPCR), astrocytes were seeded in 24 well-plates pre-coated with poly-D-lysine. After 1 day of culture, fresh serum free medium containing compounds was added during 5 days at 37° C. At the end of the incubation time total RNA content were extracted and reverse transcription was performed. Expression levels were calculated using the ΔCt method where the expression level of the mRNA of interest is given by 2-ΔCT with ΔCT=CT target mRNA−CT reference mRNA (Gapdh), in the same sample.\nRat Primary Culture of Astrocytes—rat mixed glial cells were cultured as described by McCarthy et al., 1980. Primary rat glial cells were prepared from the cortical of newborn Wistar rats (1 day). Briefly, meninges and blood vessels of the mice cortex were removed and placed in ice-cold medium of Leibovitz (L15; PanBiotech, ref P04-27055, batch 4511117) containing 2% of Penicillin-Streptomycin (PS; PanBiotech, ref P06-07100, batch 2110917) and 1% of bovine serum albumin (BSA; PanBiotech, ref P06-1391100, batch H171006). Tissues were dissociated with 0.25% trypsin-EDTA (PanBiotech, ref P10-023100, batch 8970318) at 37° C. for 10 min. Cells were then submitted to a supplementary incubation of 15 min at 37° C. in presence of deoxyribonuclease I (0.1 mg/ml Panbiotech, ref: P60-37780100, batch: H170706). Cells were then pelleted (5 min at 1200 rpm) and trypsinization was stopped by adding DMEM (Panbiotech, Ref P04-03600, Batch 5181217) supplemented with 10% FCS (Fischer, Ref 10270106, batch 42G2068K), 1 mM of Na/pyruvate (PanBiotech, ref: P04-43100, batch: 3470914) and 2% PS. Cells suspension was mechanically dissociated and filtered through 40 μm diameter nylon meshes (BD Falcon, Ref: 352340). The cells were collected by centrifugation at 1200 rpm/min for 10 min, re-suspended in culture medium and then plated in culture flasks (Dutscher, ref: 690175). Cells were seeded at a density of 1.25×10^5 cells/cm^2 and cultured in 5% CO2 at 37° C. Medium was changed three times per week.\nAnalysis of BDNF expression by real-time quantitative polymerase chain reaction (PCR): astrocytes were seeded in 24 well-plates pre-coated with poly-D-lysine (Sigma, ref P7886, batch: SLBQ9797V). After 1 day of culture, fresh serum free medium containing compounds was added during 5 days at 37° C. At the end of the incubation time, medium was removed and total RNA content were extracted using kit nucleo spin RNS XS (Macherey Nagel; 20 μL/well). 6 wells/condition were done. RNA concentration was determined using a Nanodrop 2000 spectrophotometer (Life Technologies ThermoFisher Scientific, Villebon sur Yvette, France).\nReverse transcription was performed on 500 ng of RNA using the high capacity RNA-to-cDNA mix (Applied Biotechnologies). qPCR was performed on 12.5 ng of cDNA using the following primers, purchased from Applied Biotechnology.\nFor qPCR reactions, the kit TaqMan™ Fast Universal PCR Master Mix (2×) was used. The following volumes were used: mix: 10 uL, enzyme: 4 uL, oligo: 1 uL each, cDNA: 5 uL (12,5 ng). For the comparisons between various compounds and concentrations, expression levels were calculated using the ΔCt method where the expression level of the mRNA of interest is given by 2-ΔCT with ΔCT=CT target mRNA−CT reference mRNA (Gapdh), in the same sample. For the cultures treated with GA or the unknown compound, relative expression levels were determined according to the ΔΔCt method where the expression level of the mRNA of interest is given by 2-ΔΔCT where ΔΔCT=ΔCt for treated cultures−ΔCt for untreated cultures."}, "[3]": {"test_system": "BDNF release by primary rat astrocytes", "assay": "BDNF release by primary rat astrocytes, in situ ELISA", "format": "cell-based", "conditions": "1 μM, 5 days incubation", "procedure": "At confluency, astrocytes were plated in 96-well Nunc MaxiSorp surface polystyrene flat-bottom immunoplate precoated with poly-D-lysine during 30 min. and an anti-BDNF monoclonal antibody overnight at 4° C. at a density of 30,000 cells/well. […] At the end of drug treatment, cells were carefully washed with TBST (20 mM Tris-HCl (pH 7.6), 150 mM NaCl, and 0.05% (vol/vol) Tween 20). The plate was then incubated with the polyclonal anti-human BDNF antibody overnight and BDNF quantified. Experimental Protocol-In Situ ELISA on Primary Astrocytes Rat Primary Culture of Astrocytes Rat mixed glial cells were cultured as described by McCarthy et al. Primary rat glial cells were prepared from the cortical of newborn Wistar rats (1 day). […] Medium was changed 3 times per week. At confluency, astrocytes were plated in 96-well Nunc MaxiSorp surface polystyrene flat-bottom immunoplate precoated with poly-D-lysine during 30 min (Sigma, Ref: […], batch: SLBS8705) and an anti-BDNF monoclonal antibody overnight at 4° C. at a density of 30,000 cells/well. (Balkowiec and Katz “Cellular Mechanisms Regulating Activity-Dependent Release of Native Brain-Derived Neurotrophic Factor from Hippocampal Neurons” J. […] At the end of drug treatment, cells were carefully washed with TBST (20 mM Tris-HCl (pH 7.6), 150 mM NaCl, and 0.05% (vol/vol) Tween 20). The plate was then incubated with the polyclonal anti-human BDNF antibody overnight. The amount of specifically bound polyclonal antibody, which when exposed to chromogenic substrate (TMB reagent; Promega), changes color in proportion to the amount of BDNF present in the sample. The color intensity was quantified by measuring the absorbance at 450 nm. BDNF standards, ranging in concentration from 0 to 500 pg/mL were added in parallel wells in the same medium than hippocampal neurons."}, "[4]": {"test_system": "BDNF release by primary hippocampal neurons", "assay": "BDNF release by primary hippocampal neurons, in situ ELISA", "format": "cell-based, rat", "conditions": "1 μM, 3 days incubation", "procedure": "Hippocampal neurons were plated in 96-well Nunc MaxiSorp surface polystyrene flat-bottom immunoplate precoated with poly-D-lysine during 30 min an anti-BDNF monoclonal antibody overnight at 4° C. at a density of 70,000 cells/well. […] At the end of drug treatment, cells were carefully washed with TBST (20 mM Tris-HCl (pH 7.6), 150 mM NaCl, and 0.05% (vol/vol) Tween 20). The plate was then incubated with the polyclonal anti-human BDNF antibody overnight and BDNF quantified.\nExperimental Protocol—In Situ ELISA on Primary Hippocampal Neurons Hippocampal Neuron Culture\nNewborn rats (Wistar rats, Janvier) were deeply anesthetized by hypothermia and decapitated. […] Cells were mechanically dissociated by 3 passages through a 10 ml pipette. Cells were then centrifuged at 515×g for 10 min at 4° C. […] Viable cells were counted in a Neubauer cytometer using the trypan blue exclusion test.\nHippocampal neurons were plated in 96-well Nunc MaxiSorp surface polystyrene flat-bottom immunoplate precoated with poly-D-lysine during 30 min (Sigma, Ref: P7886, batch: SLBS8705) an anti-BDNF monoclonal antibody overnight at 4° C. at a density of 70000 cells/well.\nAt the end of drug treatment, cells were carefully washed with TBST (20 mM Tris-HCl (pH 7.6), 150 mM NaCl, and 0.05% (vol/vol) Tween 20). The plate was then incubated with the polyclonal anti-human BDNF antibody overnight. The amount of specifically bound polyclonal antibody was then detected through the use of the anti-IgY-horseradish peroxidase tertiary antibody, which when exposed to the chromogenic substrate (TMB reagent; Promega), changes color in proportion to the amount of BDNF present in the sample. The color intensity was quantified by measuring the absorbance at 450 nm."}, "[5]": {"test_system": "GDNF release by primary rat astrocytes", "assay": "GDNF release by primary rat astrocytes, in situ ELISA", "format": "cell-based", "conditions": "1 μM, 5 days incubation", "procedure": "Experimental Protocol-In Situ ELISA on Primary Astrocytes Rat Primary Culture of Astrocytes Rat mixed glial cells were cultured as described by McCarthy et al. Primary rat glial cells were prepared from the cortical of newborn Wistar rats (1 day). Briefly, meninges and blood vessels of the mice cortex were removed and placed in ice-cold medium of Leibovitz (L15; PanBiotech, ref P04-27055, batch 4511117) containing 2% Penicillin-Streptomycin (PS; PanBiotech, ref P06-07100, batch 2110917) and 1% of bovine serum albumin (BSA; […] Cells were then submitted to a supplementary incubation of 15 min. at 37° C. in presence of deoxyribonuclease I (0.1 mg/mL Panbiotech, ref: P60-37780100, batch: H140508). Cells were then pelleted (5 min. at 1200 rpm) and trypsinization was stopped by adding DMEM (PanBiotech, Ref P04-03600, Batch 8420517) supplemented with 10% FCS (Fischer, Ref 10270106, batch 41A0940K), 1 mM of Na/pyruvate (PanBiotech, ref: P04-43100, batch 3470914). Cells suspension was mechanically dissociated and filtered through […] diameter nylon meshes (BD Falcon, Ref: 352340). The cells were collected by centrifugation at 1200 rpm/min for 10 min, resuspended in culture medium and then plated in culture flasks (Dutscher, ref: 690175). Cells were seeded at a density of 1.25×10^5 cells/cm^2 and culture in 5% CO2 at 37° C. Medium was changed 3 times per week. At confluency, astrocytes were plated in 96-well Nunc MaxiSorp surface polystyrene flat-bottom immunoplate precoated with poly-D-lysine during 30 min (Sigma, Ref: […], batch: SLBS8705) and an anti-GDNF monoclonal antibody overnight at 4° C. at a density of 30,000 cells/well. […] At the end of drug treatment, cells were carefully washed with TBST (20 mM Tris-HCl (pH 7.6), 150 mM NaCl, and 0.05% (vol/vol) Tween 20). The plate was then incubated with the polyclonal anti-human GDNF antibody overnight. The amount of specifically bound polyclonal antibody, which when exposed to chromogenic substrate (TMB reagent; Promega), changes color in proportion to the amount of GDNF present in the sample. The color intensity was quantified by measuring the absorbance at 450 nm. GDNF standards, ranging in concentration from 0 to 500 pg/mL were added in parallel wells in the same medium than hippocampal neurons."}},
  "data": [
    {"compound": "O=C1c2ccccc2CN1CC1CCN(CC(O)c2ccc(F)cc2)CC1", "note": "(stereo not shown) [BFB-520]", "values": [
      {"measurement": "maximum plasma concentration (Cmax)", "setting": "[1]", "value": "< 12", "unit": "ng/mL"}
    ]},
    {"compound": "glatiramer acetate [reference compound]", "values": [
      {"measurement": "BDNF expression astrocytes, % increase of control conditions", "setting": "[2]", "value": 10, "unit": "%"},
      {"measurement": "BDNF expression astrocytes, % increase of control conditions", "setting": "[2]; listed as glatiramer acetate", "value": 10, "unit": "%"},
      {"measurement": "Effect on BDNF expression by astrocytes compared to control condition (statistical)", "setting": "[2]; 25 μg/mL, 5 days, ns p>0.05", "value": "no effect"}
    ]},
    {"compound": "CCCN1CCC(c2cccc(S(C)(=O)=O)c2)CC1", "note": "[Pridopidine, pridopidine, reference compound]", "values": [
      {"measurement": "BDNF release astrocytes, % increase of control conditions", "setting": "[3]", "value": 22.3, "unit": "%"},
      {"measurement": "BDNF release astrocytes, % increase of control conditions", "setting": "[3]; listed as pridopidine", "value": 22, "unit": "%"},
      {"measurement": "BDNF release hippocampal neurons, % increase of control conditions", "setting": "[4]", "value": 18.4, "unit": "%"},
      {"measurement": "BDNF release hippocampal neurons, % increase of control conditions", "setting": "[4]; listed as pridopidine", "value": 18.4, "unit": "%"}
    ]},
    {"compound": "Cc1cccc([C@H](C)c2cnc[nH]2)c1C", "note": "[Dexmedetomidine, dexmedetomidine, reference compound]", "values": [
      {"measurement": "GDNF release astrocytes, % increase of control conditions", "setting": "[5]", "value": 15.8, "unit": "%"},
      {"measurement": "GDNF release astrocytes, % increase of control conditions", "setting": "[5]; listed as dexmedetomidine", "value": 15.8, "unit": "%"}
    ]}
  ]
}
